Residues, ends and D or L forms follow the SMILES beside them.
Tests used:
human NMUR2 receptor = human NMUR2 receptor (Homo sapiens, UniProt Q9GZQ4); experiment: IP1 Gq HTRF assay, activation of human NMUR2 in buffer; format: cell-based; set-up: expressed in transfected cells; host or cells: CHO-K1; settings: CHO-K1 cells expressing human NMUR2, stimulation buffer with 0.1% BSA; read-out: EC50 (hNMUR2) buffer
Summary of the method: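 IP-One HTRF competition (665/620 nm ratio) read after 1 h agonist exposure at 37 °C in pH 7.4 HEPES/HBSS stimulation buffer containing 50 mM LiCl, 0.1% BSA, 1% DMSO. Cells: CHO-K1 stably expressing human NMUR2 or NMUR1. EC50 by 4-parameter nonlinear regression of 8-point curves.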

human NMUR1 receptor = biological target: T1, human NMUR1 receptor (Homo sapiens, UniProt Q9HB89); experiment: Radioligand binding competition assay (RLB), human NMUR1 receptor binding (SPA, [125I]-Neuromedin U-25); settings: CHO-K1 hNMUR1 cell membranes, 4 hours at RT
T1 construct: host or cells: CHO-K1
T1 sequence (Q9HB89 24-426 limits assumed): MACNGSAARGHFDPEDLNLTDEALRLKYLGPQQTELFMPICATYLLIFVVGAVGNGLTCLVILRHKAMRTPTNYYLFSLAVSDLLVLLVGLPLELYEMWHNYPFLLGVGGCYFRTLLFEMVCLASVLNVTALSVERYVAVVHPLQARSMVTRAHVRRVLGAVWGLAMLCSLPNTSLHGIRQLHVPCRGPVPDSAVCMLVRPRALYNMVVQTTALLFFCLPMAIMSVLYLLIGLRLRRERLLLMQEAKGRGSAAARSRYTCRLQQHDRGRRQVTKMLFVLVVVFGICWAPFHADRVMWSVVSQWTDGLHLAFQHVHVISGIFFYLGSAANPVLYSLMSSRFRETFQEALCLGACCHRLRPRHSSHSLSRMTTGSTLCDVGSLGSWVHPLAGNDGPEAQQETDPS
Source text: Example 2: Radioligand Binding Competition Assay (RLB) Human NMUR1 Receptor Binding 1) Membranes The test is based on membranes prepared from a human NMUR1/Apoaequorin Stable Cell Line (Creative Biogene, Cat. No. CSC-RG1308). Cell Line Description: CHO-NMUR1 cell line is clonally-derived from a CHO-K1 cell line, which has been transfected with a bicistronic expression plasmid containing the sequence coding for the human neuromedin U receptor 1 (NM_006056.4, 180 to 1391). Mosaic-ID: CL16550614 Membrane preparation: Cells were broken by nitrogen cavitation (900 psi, 1 hour). Intact cells were removed by centrifugation (400 rcf, 10 minutes, 4° C.) before the crude membrane fraction was collected by ultracentrifugation (20.000 rcf, 1 hour, 4° C.). 2) Human NMUR1 Receptor Binding Assay (Radioligand: [125l]-Neuromedin U-25) In this Scintillation Proximity Assay (SPA) design, the membranes immobilize directly to the PVT-WGA-PEI type A beads (polyethyleneimine treated polyvinyltoluene beads coupled to wheatgerm agglutinin, Perkin Elmer) via interactions of wheat germ agglutinate and glycosylated membrane structures. Thereby the radioactively la-belled ligand, bound to NMUR1 receptors on the membrane, comes in close proximity to the solid scintillator of the PVT bead. Radioactive human neuromedin U-25 then stimulates the scintillant to emit light. In contrast, radioligand not bound to the receptor is too distant from the bead to elicit a signal. For the Scintillation Proximity Assay the CHO-K1 hNMUR1 cell membranes and SPA-beads are diluted to concentrations, which assure a robust signal to background ratio. The SPA incubation buffer consists of 25 mM Hepes (pH=7.0), 5 mM MgCl2, 1 mM CaCl2, 10 ug/mL Saponine and 0.1% bovine serum albumin and is used for all dilutions. Final assay setup in 96-well plate: 20 μL of 10× test compound dilutions+40 μL of 5× [125l]-Neuromedin U-25 (1× approx. 30 pM; 2000 μCi/mmol (μCi=microcurie))+60 μL membrane dilution (approx. 1.0 μg membrane protein)+80 μL SPA bead dilution (250 μg). The assay is incubated for 4 hours at RT, including controls for specific binding where no displacer is added and non-specific binding by adding unlabeled hNMU-25 at 100 nM. Bound radioactivity is determined by scintillation counting (MicroBeta Trilux 1450, Perkin Elmer, detection of 125I decay). […] The system assumes one binding site with no relevant radioligand depletion (<10%) and that the binding is reversible and at equilibrium. [formula] [formula]

human NMUR2 receptor, sequence (Q9GZQ4 whole entry): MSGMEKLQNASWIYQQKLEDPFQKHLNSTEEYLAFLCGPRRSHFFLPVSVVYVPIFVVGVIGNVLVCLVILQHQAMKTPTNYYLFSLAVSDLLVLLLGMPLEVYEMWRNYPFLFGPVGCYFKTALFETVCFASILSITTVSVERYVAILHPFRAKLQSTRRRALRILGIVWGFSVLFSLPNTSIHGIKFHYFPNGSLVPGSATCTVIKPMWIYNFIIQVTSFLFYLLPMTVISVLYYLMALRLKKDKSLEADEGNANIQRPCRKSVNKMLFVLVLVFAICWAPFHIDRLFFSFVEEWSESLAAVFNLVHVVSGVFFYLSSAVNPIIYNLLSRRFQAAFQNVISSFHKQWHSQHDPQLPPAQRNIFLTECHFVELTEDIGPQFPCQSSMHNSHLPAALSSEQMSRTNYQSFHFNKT

SMILES | EC50 (human NMUR2 receptor) [nM] | Ki (human NMUR1 receptor) [µM]
CCCC[C@H](NC(=O)[C@H](CC(C)C)N(C)C(=O)[C@H](Cc1ccccc1)NC(=O)[C@H](Cc1ccc(O)cc1)NC(=O)CN1CCN(CCNC(=O)CN(C)C(=O)CN(C)C(=O)CN(C)C(=O)CN(C)C(=O)CN(C)C(=O)CN(C)C(=O)CN(C)C(=O)CN(C)C(=O)CN(C)C(=O)CN(C)C(=O)CN(C)C(=O)CN(C)C(=O)CC[C@H](NC(=O)CC[C@H](NC(=O)CC[C@H](NC(=O)CCCCCCCCCCCCCCCCC(=O)O)C(=O)O)C(=O)O)C(=O)O)CC1)C(=O)N[C@@H](CCCN)C(=O)N(C)[C@@H](C)C(=O)N[C@@H](CCCNC(=N)N)C(=O)NCC(N)=O [Compound 20, C18DA-gGlu3-Sar12-AEPipAc-Tyr-Phe-NMeLeu-Nle-Orn-NMeAla-Arg-Gly-NH2] | 2.2 | > 10
CCCC[C@H](NC(=O)[C@H](CC(C)C)N(C)C(=O)[C@H](Cc1ccccc1)NC(=O)[C@H](Cc1ccc(O)cc1)NC(=O)CN1CCN(CCNC(=O)CN(C)C(=O)CN(C)C(=O)CN(C)C(=O)CN(C)C(=O)CN(C)C(=O)CN(C)C(=O)CN(C)C(=O)CN(C)C(=O)CN(C)C(=O)CN(C)C(=O)CN(C)C(=O)CN(C)C(=O)CN(C)C(=O)CN(C)C(=O)CN(C)C(=O)CC[C@H](NC(=O)CC[C@H](NC(=O)CC[C@H](NC(=O)CCCCCCCCCCCCCCCCCCC(=O)O)C(=O)O)C(=O)O)C(=O)O)CC1)C(=O)N[C@@H](CCN)C(=O)N(C)[C@@H](C)C(=O)N[C@@H](CCCNC(=N)N)C(=O)NCC(N)=O [Compound 43, C20DA-gGlu3-Sar15-AEPipAc-Tyr-Phe-NMeLeu-Nle-Dbu-NMeAla-Arg-Gly-NH2] (HELM PEPTIDE1{[O=C(O)CCCCCCCCCCCCCCCCCCC(=O)[*:2]].[gGlu].[gGlu].[gGlu].[Sar].[Sar].[Sar].[Sar].[Sar].[Sar].[Sar].[Sar].[Sar].[Sar].[Sar].[Sar].[Sar].[Sar].[Sar].[O=C(CN1CCN(CCN[*:1])CC1)[*:2]].Y.F.[meL].[Nle].[Dab].[meA].R.G.[am]}$$$$V2.0) | 3.9 | > 10
CCCC[C@H](NC(=O)[C@H](CC(C)C)N(C)C(=O)[C@H](Cc1ccccc1)NC(=O)[C@H](Cc1ccc(O)cc1)NC(=O)CN1CCN(CCNC(=O)CN(C)C(=O)CN(C)C(=O)CN(C)C(=O)CN(C)C(=O)CN(C)C(=O)CN(C)C(=O)CN(C)C(=O)CN(C)C(=O)CN(C)C(=O)CC[C@H](NC(=O)CC[C@H](NC(=O)CC[C@H](NC(=O)CCCCCCCCCCCCCCCCC(=O)O)C(=O)O)C(=O)O)C(=O)O)CC1)C(=O)N[C@@H](CCN)C(=O)N1CCC[C@H]1C(=O)N[C@@H](CCCNC(=N)N)C(=O)NCC(N)=O [Compound 24, C18DA-gGlu3-Sar9-AEPipAc-Tyr-Phe-NMeLeu-Nle-Dbu-Pro-Arg-Gly-NH2] (HELM PEPTIDE1{[O=C(O)CCCCCCCCCCCCCCCCC(=O)[*:2]].[gGlu].[gGlu].[gGlu].[Sar].[Sar].[Sar].[Sar].[Sar].[Sar].[Sar].[Sar].[Sar].[O=C(CN1CCN(CCN[*:1])CC1)[*:2]].Y.F.[meL].[Nle].[Dab].P.R.G.[am]}$$$$V2.0) | 1.4 | > 10
CCCC[C@H](NC(=O)[C@H](CC(C)C)N(C)C(=O)[C@H](Cc1ccccc1)NC(=O)[C@H](Cc1ccc(O)cc1)NC(=O)CN1CCN(CCNC(=O)CN(C)C(=O)CN(C)C(=O)CN(C)C(=O)CN(C)C(=O)CN(C)C(=O)CN(C)C(=O)CN(C)C(=O)CN(C)C(=O)CN(C)C(=O)CN(C)C(=O)CN(C)C(=O)CN(C)C(=O)CN(C)C(=O)CN(C)C(=O)CN(C)C(=O)CC[C@H](NC(=O)CC[C@H](NC(=O)CC[C@H](NC(=O)CCCCCCCCCCCCCCCCC(=O)O)C(=O)O)C(=O)O)C(=O)O)CC1)C(=O)N[C@@H](CCCNC(=N)N)C(=O)N(C)[C@@H](C)C(=O)N[C@@H](CCCNC(=N)N)C(=O)NCC(N)=O [Compound 11, C18DA-gGlu3-Sar15-AEPipAc-Tyr-Phe-NMeLeu-Nle-Arg-NMeAla-Arg-Gly-NH2] (HELM PEPTIDE1{[O=C(O)CCCCCCCCCCCCCCCCC(=O)[*:2]].[gGlu].[gGlu].[gGlu].[Sar].[Sar].[Sar].[Sar].[Sar].[Sar].[Sar].[Sar].[Sar].[Sar].[Sar].[Sar].[Sar].[Sar].[Sar].[O=C(CN1CCN(CCN[*:1])CC1)[*:2]].Y.F.[meL].[Nle].R.[meA].R.G.[am]}$$$$V2.0) | 2.8 | > 10
CCCC[C@H](NC(=O)[C@H](CC(C)C)N(C)C(=O)[C@H](Cc1ccccc1)NC(=O)[C@H](Cc1ccc(O)cc1)NC(=O)CN1CCN(CCNC(=O)CN(C)C(=O)CN(C)C(=O)CN(C)C(=O)CN(C)C(=O)CN(C)C(=O)CN(C)C(=O)CN(C)C(=O)CN(C)C(=O)CN(C)C(=O)CN(C)C(=O)CN(C)C(=O)CN(C)C(=O)CC[C@H](NC(=O)CC[C@H](NC(=O)CC[C@H](NC(=O)CCCCCCCCCCCCCCCCC(=O)O)C(=O)O)C(=O)O)C(=O)O)CC1)C(=O)N[C@@H](CCN)C(=O)N(C)[C@@H](C)C(=O)N[C@@H](CCCNC(=N)N)C(=O)NCC(N)=O [Compound 38, C18DA-gGlu3-Sar12-AEPipAc-Tyr-Phe-NMeLeu-Nle-Dbu-NMeAla-Arg-Gly-NH2] | 1.9 | > 10
CCCC[C@H](NC(=O)[C@H](CC(C)C)N(C)C(=O)[C@H](Cc1ccccc1)NC(=O)[C@H](Cc1ccc(O)cc1)NC(=O)CN1CCN(CCNC(=O)CN(C)C(=O)CN(C)C(=O)CN(C)C(=O)CN(C)C(=O)CN(C)C(=O)CN(C)C(=O)CN(C)C(=O)CN(C)C(=O)CN(C)C(=O)CN(C)C(=O)CN(C)C(=O)CN(C)C(=O)CC[C@H](NC(=O)CC[C@H](NC(=O)CC[C@H](NC(=O)CCCCCCCCCCCCCCCCC(=O)O)C(=O)O)C(=O)O)C(=O)O)CC1)C(=O)N[C@@H](CCCNC(=N)N)C(=O)N(C)[C@@H](C)C(=O)N[C@@H](CCCNC(=N)N)C(=O)NCC(N)=O [Compound 12, C18DA-gGlu3-Sar12-AEPipAc-Tyr-Phe-NMeLeu-Nle-Arg-NMeAla-Arg-Gly-NH2] | 2.7 | > 10
CCCC[C@H](NC(=O)[C@H](CC(C)C)N(C)C(=O)[C@H](Cc1ccccc1)NC(=O)[C@H](Cc1ccc(O)cc1)NC(=O)CN1CCN(CCNC(=O)CN(C)C(=O)CN(C)C(=O)CN(C)C(=O)CN(C)C(=O)CN(C)C(=O)CN(C)C(=O)CN(C)C(=O)CN(C)C(=O)CN(C)C(=O)CN(C)C(=O)CN(C)C(=O)CN(C)C(=O)CN(C)C(=O)CN(C)C(=O)CN(C)C(=O)CC[C@H](NC(=O)CC[C@H](NC(=O)CC[C@H](NC(=O)CCCCCCCCCCCCCCCCC(=O)O)C(=O)O)C(=O)O)C(=O)O)CC1)C(=O)N[C@@H](CCN)C(=O)N(C)[C@@H](C)C(=O)N[C@@H](CCCNC(=N)N)C(=O)NCC(N)=O [Compound 23, C18DA-gGlu3-Sar15-AEPipAc-Tyr-Phe-NMeLeu-Nle-Dbu-NMeAla-Arg-Gly-NH2] (HELM PEPTIDE1{[O=C(O)CCCCCCCCCCCCCCCCC(=O)[*:2]].[gGlu].[gGlu].[gGlu].[Sar].[Sar].[Sar].[Sar].[Sar].[Sar].[Sar].[Sar].[Sar].[Sar].[Sar].[Sar].[Sar].[Sar].[Sar].[O=C(CN1CCN(CCN[*:1])CC1)[*:2]].Y.F.[meL].[Nle].[Dab].[meA].R.G.[am]}$$$$V2.0) | 3.3 | > 10
